Assays:
[1] = test system: green foxtail; assay: Test Example 4: herbicidal effect by soil treatment (Table 19, symbol G); format: in vivo, green foxtail (Setaria viridis); conditions: amount of applied herbicide 320 g/ha
Summary of the method: (§1)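 Soil-surface application: an emulsion agent diluted with water to the predetermined dose is sprayed uniformly over seeds lying under roughly 1.5 cm of sterilized diluvial soil. Boxes stay in a greenhouse at 25° C. to 30° C. Three weeks later, each species is graded on previously defined criteria.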

[2] = test system: late watergrass; assay: Test Example 1: herbicidal activity, application before weed generation under submerged conditions (Table 16, symbol A); format: in vivo, late watergrass (Echinochloa oryzicola); conditions: amount of applied herbicide 320 g/ha
Summary of the method: (§2)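 Alluvial soil was flooded to 4 cm depth, weed seeds were sown mixed and 2.5-leaf rice seedlings were transplanted. On sowing day, the compound's emulsion, diluted in water to a set dose, was applied to the water surface. Plants grew at 25–30 °C and were scored 0–5 after three weeks.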

[3] = test system: velvetleaf; assay: Test Example 4: herbicidal effect by soil treatment (Table 19, symbol M); format: in vivo, velvetleaf (Abutilon theophrasti); conditions: amount of applied herbicide 320 g/ha
Summary of the method: as §1

[4] = test system: persian speedwell; assay: Test Example 4: herbicidal effect by soil treatment (Table 19, symbol R); format: in vivo, Persian speedwell (Veronica persica); conditions: amount of applied herbicide 320 g/ha
Summary of the method: as §1

[5] = test system: windgrass; assay: Test Example 5: herbicidal effect by foliage application, plastic box (Table 20, symbol L); format: in vivo, windgrass (Apera spica-venti); conditions: amount of applied herbicide 320 g/ha; foliage application after 14-day growth; evaluated three weeks after application
Summary of the method: (§3)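 Sow seeds spot-wise in sterilized diluvial soil; cover with ~1.5 cm soil. Grow 14 days in greenhouse, 25° C. to 30° C. Spray foliage with emulsion diluted to predetermined amount. Rate effect after 3 weeks.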

[6] = test system: blackgrass; assay: Test Example 5: herbicidal effect by foliage application, plastic box (Table 20, symbol J); format: in vivo, blackgrass (Alopecurus myosuroides); conditions: amount of applied herbicide 320 g/ha; foliage application after 14-day growth; evaluated three weeks after application
Summary of the method: as §3

[7] = test system: persian speedwell; assay: Test Example 5: herbicidal effect by foliage application, plastic box (Table 20, symbol R); format: in vivo, Persian speedwell (Veronica persica); conditions: amount of applied herbicide 320 g/ha; foliage application after 14-day growth; evaluated three weeks after application
Summary of the method: as §3

[8] = test system: lambsquarters; assay: Test Example 5: herbicidal effect by foliage application, plastic box (Table 20, symbol O); format: in vivo, lambsquarters (Chenopodium album); conditions: amount of applied herbicide 320 g/ha; foliage application after 14-day growth; evaluated three weeks after application
Summary of the method: as §3

[9] = test system: chickweed; assay: Test Example 5: herbicidal effect by foliage application, plastic box (Table 20, symbol P); format: in vivo, common chickweed (Stellaria media); conditions: amount of applied herbicide 320 g/ha; foliage application after 14-day growth; evaluated three weeks after application
Summary of the method: as §3

[10] = test system: Italian ryegrass; assay: Test Example 5: herbicidal effect by foliage application, plastic box (Table 20, symbol K); format: in vivo, Italian ryegrass (Lolium multiflorum); conditions: amount of applied herbicide 320 g/ha; foliage application after 14-day growth; evaluated three weeks after application
Summary of the method: as §3

[11] = test system: oval-leafed pondweed; assay: Test Example 1: herbicidal activity, application before weed generation under submerged conditions (Table 16, symbol C); format: in vivo, oval-leafed pondweed (Monochoria vaginalis); conditions: amount of applied herbicide 320 g/ha
Summary of the method: as §2

[12] = test system: blackgrass; assay: Test Example 4: herbicidal effect by soil treatment (Table 19, symbol J); format: in vivo, blackgrass (Alopecurus myosuroides); conditions: amount of applied herbicide 320 g/ha
Summary of the method: as §1

[13] = test system: lambsquarters; assay: Test Example 4: herbicidal effect by soil treatment (Table 19, symbol O); format: in vivo, lambsquarters (Chenopodium album); conditions: amount of applied herbicide 320 g/ha
Summary of the method: as §1

[14] = test system: wild oat; assay: Test Example 5: herbicidal effect by foliage application, plastic box (Table 20, symbol I); format: in vivo, wild oat (Avena fatua); conditions: amount of applied herbicide 320 g/ha; foliage application after 14-day growth; evaluated three weeks after application
Summary of the method: as §3

[15] = test system: southern crabgrass; assay: Test Example 4: herbicidal effect by soil treatment (Table 19, symbol F); format: in vivo, southern crabgrass (Digitaria ciliaris); conditions: amount of applied herbicide 320 g/ha
Summary of the method: as §1

[16] = test system: Italian ryegrass; assay: Test Example 4: herbicidal effect by soil treatment (Table 19, symbol K); format: in vivo, Italian ryegrass (Lolium multiflorum); conditions: amount of applied herbicide 320 g/ha
Summary of the method: as §1

[17] = test system: barnyard grass; assay: Test Example 4: herbicidal effect by soil treatment (Table 19, symbol H); format: in vivo, barnyard grass (Echinochloa crus-galli); conditions: amount of applied herbicide 320 g/ha
Summary of the method: as §1

[18] = test system: green foxtail; assay: Test Example 5: herbicidal effect by foliage application, plastic box (Table 20, symbol G); format: in vivo, green foxtail (Setaria viridis); conditions: amount of applied herbicide 320 g/ha; foliage application after 14-day growth; evaluated three weeks after application
Summary of the method: as §3

[19] = test system: southern crabgrass; assay: Test Example 5: herbicidal effect by foliage application, plastic box (Table 20, symbol F); format: in vivo, southern crabgrass (Digitaria ciliaris); conditions: amount of applied herbicide 320 g/ha; foliage application after 14-day growth; evaluated three weeks after application
Summary of the method: as §3

[20] = test system: redroot pigweed; assay: Test Example 5: herbicidal effect by foliage application, plastic box (Table 20, symbol N); format: in vivo, redroot pigweed (Amaranthus retroflexus); conditions: amount of applied herbicide 320 g/ha; foliage application after 14-day growth; evaluated three weeks after application
Summary of the method: as §3

[21] = test system: barnyard grass; assay: Test Example 3: herbicidal effect by foliage application, Wagner pot (Table 18, symbol H); format: in vivo, barnyard grass (Echinochloa crus-galli); conditions: 320 g/ha
Summary of the method: (§4)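 Plants were sown in alluvial soil held under 0.1–0.5 cm standing water and grown 14 days in a greenhouse at 25–30 °C. An emulsifiable formulation, water-diluted to the set dose, was then sprayed onto the foliage, and effects were scored three weeks later using previously defined criteria.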

[22] = test system: chickweed; assay: Test Example 4: herbicidal effect by soil treatment (Table 19, symbol P); format: in vivo, common chickweed (Stellaria media); conditions: amount of applied herbicide 320 g/ha
Summary of the method: as §1

[23] = test system: wild oat; assay: Test Example 4: herbicidal effect by soil treatment (Table 19, symbol I); format: in vivo, wild oat (Avena fatua); conditions: amount of applied herbicide 320 g/ha
Summary of the method: as §1

[24] = test system: Japanese bulrush; assay: Test Example 1: herbicidal activity, application before weed generation under submerged conditions (Table 16, symbol B); format: in vivo, Japanese bulrush (Schoenoplectus juncoides); conditions: amount of applied herbicide 320 g/ha
Summary of the method: as §2

[25] = test system: velvetleaf; assay: Test Example 5: herbicidal effect by foliage application, plastic box (Table 20, symbol M); format: in vivo, velvetleaf (Abutilon theophrasti); conditions: amount of applied herbicide 320 g/ha; foliage application after 14-day growth; evaluated three weeks after application
Summary of the method: as §3

[26] = test system: Chinese sprangletop; assay: Test Example 3: herbicidal effect by foliage application, Wagner pot (Table 18, symbol D); format: in vivo, chinese sprangletop (Leptochloa chinensis); conditions: 320 g/ha
Summary of the method: as §4

[27] = test system: redroot pigweed; assay: Test Example 4: herbicidal effect by soil treatment (Table 19, symbol N); format: in vivo, redroot pigweed (Amaranthus retroflexus); conditions: amount of applied herbicide 320 g/ha
Summary of the method: as §1

[28] = test system: windgrass; assay: Test Example 4: herbicidal effect by soil treatment (Table 19, symbol L); format: in vivo, windgrass (Apera spica-venti); conditions: amount of applied herbicide 320 g/ha
Summary of the method: as §1

[29] = test system: rice flat sedge; assay: Test Example 3: herbicidal effect by foliage application, Wagner pot (Table 18, symbol E); format: in vivo, rice flat sedge (Cyperus iria); conditions: 320 g/ha
Summary of the method: as §4

[30] = test system: barnyard grass; assay: Test Example 5: herbicidal effect by foliage application, plastic box (Table 20, symbol H); format: in vivo, barnyard grass (Echinochloa crus-galli); conditions: amount of applied herbicide 320 g/ha; foliage application after 14-day growth; evaluated three weeks after application
Summary of the method: as §3

| SMILES | G: green foxtail, herbicidal effect grade [1] | Herbicidal effect, A: late watergrass [2] | M: velvetleaf, herbicidal effect grade [3] | R: persian speedwell, herbicidal effect grade [4] | Herbicidal effect by foliage application, L: windgrass [5] | Herbicidal effect by foliage application, J: blackgrass [6] | Herbicidal effect by foliage application, R: persian speedwell [7] | Herbicidal effect by foliage application, O: lambsquarters [8] | Herbicidal effect by foliage application, P: chickweed [9] | Herbicidal effect by foliage application, K: Italian ryegrass [10] | Herbicidal effect, C: oval-leafed pondweed [11] | J: blackgrass, herbicidal effect grade [12] | O: lambsquarters, herbicidal effect grade [13] | Herbicidal effect by foliage application, I: wild oat [14] | F: southern crabgrass, herbicidal effect grade [15] | K: Italian ryegrass, herbicidal effect grade [16] | H: barnyard grass, herbicidal effect grade [17] | Herbicidal effect by foliage application, G: green foxtail [18] | Herbicidal effect by foliage application, F: southern crabgrass [19] | Herbicidal effect by foliage application, N: redroot pigweed [20] | further results |
| --- | --- | --- | --- | --- | --- | --- | --- | --- | --- | --- | --- | --- | --- | --- | --- | --- | --- | --- | --- | --- | --- |
| Cc1nn(C)c(=O)c(-c2c(-c3ccccc3OC(C)C)sc3cc(F)c(F)cc23)c1O [5-018] | 3 (Herbicidal rate of 40% or more and less than 70%) | 0 (Herbicidal rate of 5% or less (almost no effect)) | 0 (Herbicidal rate of 5% or less (almost no effect)) | 3 (Herbicidal rate of 40% or more and less than 70%) | 0 (Herbicidal rate of 5% or less (almost no effect)) | 1 (Herbicidal rate of 5% or more and less than 20%) | 5 (Herbicidal rate of 90% or more (almost completely withered)) | 0 (Herbicidal rate of 5% or less (almost no effect)) | 5 (Herbicidal rate of 90% or more (almost completely withered)) | 0 (Herbicidal rate of 5% or less (almost no effect)) | 5 (Herbicidal rate of 90% or more (almost completely withered)) | 0 (Herbicidal rate of 5% or less (almost no effect)) | 1 (Herbicidal rate of 5% or more and less than 20%) | 0 (Herbicidal rate of 5% or less (almost no effect)) | 0 (Herbicidal rate of 5% or less (almost no effect)) | 0 (Herbicidal rate of 5% or less (almost no effect)) | 2 (Herbicidal rate of 20% or more and less than 40%) | 2 (Herbicidal rate of 20% or more and less than 40%) | 0 (Herbicidal rate of 5% or less (almost no effect)) | 1 (Herbicidal rate of 5% or more and less than 20%) | herbicidal effect on barnyard grass (H) [21]: 4 (Herbicidal rate of 70% or more and less than 90%); P: chickweed, herbicidal effect grade [22]: 4 (Herbicidal rate of 70% or more and less than 90%); I: wild oat, herbicidal effect grade [23]: 0 (Herbicidal rate of 5% or less (almost no effect)); Herbicidal effect, B: Japanese bulrush [24]: 5 (Herbicidal rate of 90% or more (almost completely withered)); Herbicidal effect by foliage application, M: velvetleaf [25]: 4 (Herbicidal rate of 70% or more and less than 90%); herbicidal effect on Chinese sprangletop (D) [26]: 0 (Herbicidal rate of 5% or less (almost no effect)); N: redroot pigweed, herbicidal effect grade [27]: 2 (Herbicidal rate of 20% or more and less than 40%); L: windgrass, herbicidal effect grade [28]: 0 (Herbicidal rate of 5% or less (almost no effect)); herbicidal effect on rice flat sedge (E) [29]: 3 (Herbicidal rate of 40% or more and less than 70%); Herbicidal effect by foliage application, H: barnyard grass [30]: 0 (Herbicidal rate of 5% or less (almost no effect)) |
| CCCC(=O)Oc1c(C)nn(C)c(=O)c1-c1c(-c2ccc(OC(C)C)cc2)sc2cc(F)c(F)cc12 [5-020] | 0 (Herbicidal rate of 5% or less (almost no effect)) | 3 (Herbicidal rate of 40% or more and less than 70%) | 0 (Herbicidal rate of 5% or less (almost no effect)) | 3 (Herbicidal rate of 40% or more and less than 70%) | 0 (Herbicidal rate of 5% or less (almost no effect)) | 0 (Herbicidal rate of 5% or less (almost no effect)) | 5 (Herbicidal rate of 90% or more (almost completely withered)) | 3 (Herbicidal rate of 40% or more and less than 70%) | 4 (Herbicidal rate of 70% or more and less than 90%) | 0 (Herbicidal rate of 5% or less (almost no effect)) | 0 (Herbicidal rate of 5% or less (almost no effect)) | 0 (Herbicidal rate of 5% or less (almost no effect)) | 0 (Herbicidal rate of 5% or less (almost no effect)) | 0 (Herbicidal rate of 5% or less (almost no effect)) | 0 (Herbicidal rate of 5% or less (almost no effect)) | 0 (Herbicidal rate of 5% or less (almost no effect)) | 0 (Herbicidal rate of 5% or less (almost no effect)) | 0 (Herbicidal rate of 5% or less (almost no effect)) | 0 (Herbicidal rate of 5% or less (almost no effect)) | 4 (Herbicidal rate of 70% or more and less than 90%) | herbicidal effect on barnyard grass (H) [21]: 3 (Herbicidal rate of 40% or more and less than 70%); P: chickweed, herbicidal effect grade [22]: 0 (Herbicidal rate of 5% or less (almost no effect)); I: wild oat, herbicidal effect grade [23]: 0 (Herbicidal rate of 5% or less (almost no effect)); Herbicidal effect, B: Japanese bulrush [24]: 0 (Herbicidal rate of 5% or less (almost no effect)); Herbicidal effect by foliage application, M: velvetleaf [25]: 2 (Herbicidal rate of 20% or more and less than 40%); herbicidal effect on Chinese sprangletop (D) [26]: 0 (Herbicidal rate of 5% or less (almost no effect)); N: redroot pigweed, herbicidal effect grade [27]: 3 (Herbicidal rate of 40% or more and less than 70%); L: windgrass, herbicidal effect grade [28]: 0 (Herbicidal rate of 5% or less (almost no effect)); herbicidal effect on rice flat sedge (E) [29]: 0 (Herbicidal rate of 5% or less (almost no effect)); Herbicidal effect by foliage application, H: barnyard grass [30]: 1 (Herbicidal rate of 5% or more and less than 20%) |

Reference: US20230085307A1, “PYRIDAZINONE COMPOUND AND HERBICIDE” (NISSAN CHEMICAL CORPORATION, priority 2019, published 2023)
